Measured values published in PubChem BioAssay (NCI).
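Tested at 5 concentrations; 48 h exposure; 96-well plates; endpoints linearly interpolated, else capped at highest concentration. GI50: concentration for 50% inhibition of growth. Definition used: TGI = concentration required for complete inhibition of growth.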

Assays:
Experiment in all cases: NCI-60 cell line screen, 48 h
A549 NSCLC = test system: A549 NSCLC
HCT-15 colon = test system: HCT-15 colon
HOP-62 NSCLC = test system: HOP-62 NSCLC
OVCAR-4 ovarian = test system: OVCAR-4 ovarian
OVCAR-5 ovarian = test system: OVCAR-5 ovarian
SK-OV-3 ovarian = test system: SK-OV-3 ovarian
SR leukemia = test system: SR leukemia
SW-620 colon = test system: SW-620 colon
TK-10 renal = test system: TK-10 renal
DU-145 prostate = test system: DU-145 prostate

Row | SMILES | TGI (A549 NSCLC) | TGI (HCT-15 colon) | TGI (HOP-62 NSCLC) | TGI (OVCAR-4 ovarian) | TGI (OVCAR-5 ovarian) | TGI (SK-OV-3 ovarian) | TGI (SR leukemia) | TGI (SW-620 colon) | TGI (TK-10 renal) | GI50 (DU-145 prostate) | TGI (DU-145 prostate) | GI50 (HCT-15 colon) | GI50 (OVCAR-4 ovarian) | GI50 (OVCAR-5 ovarian) | GI50 (SK-OV-3 ovarian) | GI50 (SW-620 colon) | GI50 (A549 NSCLC) | GI50 (TK-10 renal) | GI50 (HOP-62 NSCLC)
1 | CCCC(=O)N[C@H]1C2C3CC4C5CC(C42)C1(C)C53 (stereo partly drawn) | > 100 µM | > 100 µM | > 100 µM | > 100 µM | > 100 µM | > 100 µM | > 100 µM | > 100 µM | > 100 µM | – | – | – | – | – | – | – | – | – | –
2 | NCCOCCOCCNc1nc(-c2ccc(Cl)cc2)nc(N2CCN(c3ccccn3)CC2)n1 | – | 3.85 µM | – | 10.5 µM | 5.11 µM | 6.28 µM | – | 3.35 µM | – | 2.17 µM | 4.51 µM | 1.87 µM | 2.78 µM | 2.32 µM | 2.67 µM | 1.75 µM | – | – | –
3 | CC(=O)[O-].[Mn+3].[O-]c1ccccc1C=NCCNCCN=Cc1ccccc1[O-] | > 100 µM | > 100 µM | – | > 100 µM | – | > 100 µM | – | – | > 100 µM | – | – | > 100 µM | > 100 µM | – | > 100 µM | – | > 100 µM | > 100 µM | –
4 | S=c1nc(N/N=C/c2ccco2)c2cn[nH]c2[nH]1 | > 100 µM | > 100 µM | > 100 µM | > 100 µM | > 100 µM | > 100 µM | – | > 100 µM | > 100 µM | 61.8 µM | > 100 µM | 50 µM | > 100 µM | > 100 µM | 92.7 µM | 51 µM | 20 µM | > 100 µM | > 100 µM
5 | O=c1/c(=C\c2ccc(F)cc2)sc2n1C(c1ccc(F)cc1)C1=C(N=2)c2ccc3ccccc3c2OCC1 (stereo not drawn) | > 100 µM | > 100 µM | > 100 µM | > 100 µM | > 100 µM | > 100 µM | – | > 100 µM | > 100 µM | > 100 µM | > 100 µM | 7.17 µM | > 100 µM | > 100 µM | > 100 µM | > 100 µM | > 100 µM | > 100 µM | > 100 µM
6 | COc1ncnc(S(=O)(=O)c2ccc(N=C3C(=O)N(CN4CCN(c5cc6c(cc5F)c(=O)c(C(=O)O)cn6C5CC5)CC4)c4ccc(Cl)cc43)cc2)c1OC | > 50 µM | > 50 µM | > 50 µM | – | > 50 µM | – | – | > 50 µM | 36.7 µM | > 50 µM | > 50 µM | 19.7 µM | – | > 50 µM | – | > 50 µM | > 50 µM | 8.78 µM | 31.6 µM
7 | CN1CCc2c1nc(-c1ccc(Cl)cc1)c1c2N(C)CC1 | > 100 µM | > 100 µM | 27.7 µM | > 100 µM | 73.3 µM | 59.8 µM | – | > 100 µM | 92.6 µM | – | – | – | – | – | – | – | – | – | –
8 | Cc1c(NC(=S)NC(=O)c2ccc([N+](=O)[O-])cc2)c(=O)n(-c2ccccc2)n1C | > 100 µM | > 100 µM | > 100 µM | > 100 µM | > 100 µM | > 100 µM | > 100 µM | > 100 µM | > 100 µM | – | – | – | – | – | – | – | – | – | –
